Measured values as given in US9024043B2, “Pimarane diterpenes from Anisochilus verticillatus” (Council of Scientific & Industrial Research, priority 2011, dated 2015).
In brackets after ≈: the same amount, converted by molar mass. Entries after “also recorded” stand apart in the source; their conditions may differ.

What was measured:
[1] = tested on: Mycobacterium tuberculosis H37Ra; experiment: Anti-mycobacterial activity (XTT-menadione assay); type: cell-based; conditions: for inhibition at 100 µg/mL: read-out: % inhibition at 100 μg/ml against M. tuberculosis (footnote c); for antimycobacterial activity against M. tuberculosis (in words): in vitro; for IC90: concentration exhibiting 90% inhibition against growth, H37Ra, 8th day of incubation, read-out: IC90 value determined against M. tuberculosis
Experimental: All the isolated compounds and whole acetone extract were tested for their in vitro effect against Mycobacterium tuberculosis H37Ra culture maintained in-house.
M. tuberculosis, H37Ra (ATCC 25177) cells were grown to logarithmic phase (O.D.595˜1.0) in a defined medium (M. pheli medium) under aerobic conditions in a shaker incubator (Thermo Electron Corporation Model 481) maintained at 150 rpm and 37° C. After growth, the culture was sonicated for 2 min using a water bath sonicator. Sonicated cells were used for inoculation in micro plate wells. 250 μl of the culture containing ˜10 5 cells/ml was added to each well of 96 well plates. 2.5 μl of the test samples dissolved in DMSO was added to the wells to attain a final concentration of 100 ug/ml respectively for the preliminary screening. Dose response curve of the active compounds was carried out by making serial dilutions of the test samples. Then, the plate was incubated in a CO2 incubator at 37° C. The plate was taken out on the 8th day of incubation to measure the viable cell counts. The optical density of the culture was measured before addition of XTT at 470 nm which was served as a blank for the MIC calculations. 200 μM XTT was added and incubated for 20 min at 37° C. after shaking for 1 min. After 20 min of incubation, 60 μM menadione was added and incubated at 37° C. for 40 min after mixing of 1 min. Finally, the optical density of the suspension was measured at 470 nm by using microplate reader.

[2] = tested on: THP-1 (Human acute leukemia cells) cell lines; experiment: Cytotoxicity studies (MTT assay); type: cell-based; conditions: for inhibition at 100 µg/mL: Homo sapiens, THP-1, 100 μg/ml, 72 h, MTT, read-out: % Inhibition on Thp-1 cell line at 100 μg/ml
Experimental: Compounds 3 was tested at IC90 values and also at higher concentration, 100 μg/ml, for their in vitro cytotoxicity against THP-1 (Human acute leukemia cells) cell lines procured from National Cell Repository, India.
About 10,000 cells were taken per well in 96-well tissue culture plates and treated with compound 3 at IC90 values and also at higher concentration, 100 μg/ml for 72 h. Vehicle control (DMSO, 1%) and positive control (Paclitaxel, 100 μg/ml) were run simultaneously. Cell proliferation was assessed with 10 μl from 5 mg/ml stock solution of tetrazolium salt (MTT) dissolved in cell culture medium and subsequently incubated for additional 1 h at 37° C., 5% of CO2 and 95% humidity in incubator. The violet coloured formazan crystals formed were solubilized in 200 μl of isopropanol and incubated for another 4 h. The optical density was read on a micro plate reader (Spectramax plus384 plate reader, Molecular Devices Inc) at 490 nm filter against a blank prepared from cell-free wells. Absorbance given by cells treated with the carrier DMSO alone was taken as 100% cell growth. All experiments were performed in triplicate, and the quantitative value was expressed as the average±standard deviation.

[3] = Mycobacterium tuberculosis, H37RA

C=C[C@@]1(C)CC[C@@]2(O)[C@]3(CC[C@@]4(OO3)C(C)(C)CCC[C@]24C)C1 [Compound 1, pimarane-5,8-peroxide]
inhibition at 100 µg/mL [1, 3]: 42.9% | antimycobacterial activity against M. tuberculosis (in words) [1]: effective

C=C[C@@]1(C)CC[C@H]2[C@@](O)(C[C@@H](O)[C@@]3(O)C(C)(C)CCC[C@]23C)C1 [Compound 2, pimarane-triol]
IC90 ([1]; Mycobacterium tuberculosis): 20 µg/mL (≈ 62 µM) | antimycobacterial activity against M. tuberculosis (in words) [1]: effective

C=C[C@@]1(C)CC[C@@]2(O)[C@@](O)(C[C@@H](O)[C@@]3(O)C(C)(C)CCC[C@]23C)C1 [Compound 3, pimarane-tetrol]
inhibition at 100 µg/mL [2]: 57.2% | anti-cancer activity against THP-1 cell lines (in words) ([2]; in vitro): showed anti-cancer activity; also recorded: comparable to that of known standard drug, paclitaxel | inhibition at 100 µg/mL [1, 3]: 35% | antimycobacterial activity against M. tuberculosis (in words) [1]: effective

C=CCc1ccc(O)c(O)c1 [Compound 4, Hydroxychavicol]
IC50 ([1]; Mycobacterium tuberculosis, H37RA, read-out: IC50 against growth of M. tuberculosis (footnote d)): 12.5 µg/mL (≈ 83.2 µM) | antimycobacterial activity against M. tuberculosis (in words) [1]: effective

NNC(=O)c1ccncc1 [Isoniazid, reference compound]
IC90 ([1]; Mycobacterium tuberculosis): 0.05 ± 0.003 µg/mL (≈ 0.365 µM)

CC(=O)O[C@H]1C(=O)[C@@]2(C)[C@H]([C@H](OC(=O)c3ccccc3)[C@]3(O)C[C@H](OC(=O)[C@H](O)[C@@H](NC(=O)c4ccccc4)c4ccccc4)C(C)=C1C3(C)C)[C@]1(OC(C)=O)CO[C@@H]1C[C@@H]2O [Paclitaxel, reference compound]
inhibition at 100 µg/mL [2]: 61%
